Reference: patent US8071797B2 (priority 2008, dated 2011)

Target: T1, HCV polymerase (NS5B570n-Con1) (Hepatitis C virus genotype 1b, UniProt Q9WMX2)
T1 construct: contains a 21 amino acid deletion at the C-terminus relative to the full-length HCV polymerase; 6-histidine (N); made in house; host or cells: E. coli BL21 (DE) pLysS
Assay: HCV NS5B RNA polymerase activity assay
Assay type: biochemical, HCV Con1 strain
Details: IC50 NS5B polymerase assay, Table I
Method: The enzymatic activity of HCV polymerase (NS5B570n-Con1) was measured as the incorporation of radiolabeled nucleotide monophosphates into acid insoluble RNA products. Unincorporated radiolabeled substrate was removed by filtration and scintillant was added to the washed and dried filter plate containing radiolabeled RNA product. The amount of RNA product generated by NS5B570-Con1 at the end of the reaction was directly proportional to the amount of light emitted by the scintillant.
The N-terminal 6-histidine tagged HCV polymerase, derived from HCV Con1 strain, genotype 1b (NS5B570n-Con1) contains a 21 amino acid deletion at the C-terminus relative to the full-length HCV polymerase and was purified from E. coli strain BL21 (DE) pLysS. The construct, containing the coding sequence of HCV NS5B Con1 (GenBank accession number AJ242654) was inserted into the plasmid construct pETI 7b, downstream of a T7 promoter expression cassette and transformed into E. coli. A single colony was grown overnight as a starter culture and later used inoculate 10 L of LB media supplemented with 100 μg/mL ampicillin at 37° C. Protein expression was induced by the addition of 0.25 mM isopropyl-β-D-thiogalactopyranoside (IPTG) when optical density at […] of the culture was between 0.6 and 0.8 and cells were harvested after 16 to 18 h at 30° C. NS5B570n-Con1 was purified to homogeneity using a three-step protocol including subsequent column chromatography on Ni-NTA, SP-Sepharose HP and Superdex 75 resins.
Each 50 μl enzymatic reaction contained 20 nM RNA template derived from the complementary sequence of the Internal Ribosome Entry Site (cIRES), 20 nM NS5B570n-Con1 enzyme, 0.5 μCi of tritiated UTP (Perkin Elmer catalog no. TRK-412; specific activity: 30 to 60 Ci/mmol; stock solution concentration from 7.5×10^-5 M to 20.6×10^-6 M), 1 μM each ATP, CTP, and GTP, 40 mM Tris-HCl pH 8.0, 40 mM NaCl, 4 mM DTT (dithiothreitol), 4 mM MgCl2, and 5 μl of compound serial diluted in DMSO. Reaction mixtures were assembled in 96-well filter plates (cat #MADVN0B, Millipore Co.) and incubated for 2 h at 30° C. Reactions were stopped by addition of 10% final (v/v) trichloroacetic acid and incubated for 40 min at 4° C. Reactions were filtered, washed with 8 reaction volumes of 10% (v/v) trichloroacetic acetic acid, 4 reaction volumes of 70% (v/v) ethanol, air dried, and 25 μl of scintillant (Microscint 20, Perkin-Elmer) was added to each reaction well.
The amount of light emitted from the scintillant was converted to counts per minute (CPM) on a Topcount® plate reader (Perkin-Elmer, Energy Range: Low, Efficiency Mode Normal, Count Time: 1 min, Background Subtract: none, Cross talk reduction: Off).
Data was analyzed in Excel® (Microsoft®) and ActivityBase® (idbsg). The reaction in the absence of enzyme was used to determine the background signal, which was subtracted from the enzymatic reactions. Positive control reactions were performed in the absence of compound, from which the background corrected activity was set as 100% polymerase activity. All data was expressed as a percentage of the positive control. The compound concentration at which the enzyme-catalyzed rate of RNA synthesis was reduced by 50% (IC50) was calculated by fitting
[formula] equation (t) to the data.where “Y” corresponds to the relative enzyme activity (in %), “% Min” is the residual relative activity at saturating compound concentration, “% Max” is the relative maximum enzymatic activity, “X” corresponds to the compound concentration, and “S” is the Hill coefficient (or slope).

SMILES | IC50 [nM]
CNC(=O)c1c(-c2ccc(Oc3ccc(F)cc3)cc2)oc2cc(N(CCCCN)S(C)(=O)=O)c(C3CC3)cc12 [Compound I-92] | 56
CNC(=O)c1c(-c2ccc(Nc3ccc(F)c(F)c3)cc2)oc2cc(N(CCO)S(C)(=O)=O)c(OC)cc12 [Compound I-10] | 65
CNC(=O)c1c(-c2ccc(Oc3ccc(F)cc3)cc2)oc2cc(N(CC3COC3)S(C)(=O)=O)c(C3CC3)cc12 [Compound I-70, 5-Cyclopropyl-2-[4-(4-fluoro-phenoxy)-phenyl]-6-(methanesulfonyl-oxetan-3-ylmethyl-amino)-benzofuran-3-carboxylic acid methylamide] | 13
CNC(=O)c1c(-c2ccc(Oc3ccc(F)cc3)nc2)oc2cc(N(CCO)S(C)(=O)=O)c(OC)cc12 [Compound I-125, 2-[6-(4-Fluoro-phenoxy)-pyridin-3-yl]-6-[(2-hydroxy-ethyl)-methanesulfonyl-amino]-5-methoxy-benzofuran-3-carboxylic acid methylamide] | 490
CNC(=O)c1c(-c2ccc(Oc3ccc(F)cc3)cc2)oc2cc(N(CCS(N)(=O)=O)S(C)(=O)=O)c(C3CC3)cc12 [Compound I-119, 5-Cyclopropyl-2-[4-(4-fluoro-phenoxy)-phenyl]-6-[methanesulfonyl-(2-sulfamoyl-ethyl)-amino]-benzofuran-3-carboxylic acid methylamide] | 14
CNC(=O)c1c(-c2ccc(Oc3ccccc3F)cc2)oc2cc(N(CCO)S(C)(=O)=O)c(C3CC3)cc12 [Compound I-61] | 35
CNC(=O)c1c(-c2ccc(Nc3ccc(C(F)(F)F)cc3)cc2)oc2cc(N(CCO)S(C)(=O)=O)c(OC)cc12 [Compound I-11] | 1950
CNC(=O)c1c(-c2ccc(Oc3ccc(F)cc3)cc2)oc2cc(N(CCCS(C)(=O)=O)S(C)(=O)=O)c(C3CC3)cc12 [Compound I-114] | 21
CNC(=O)c1c(-c2ccc(Nc3ccc(F)c(Cl)c3)cc2)oc2cc(N(CCO)S(C)(=O)=O)c(OC)cc12 [Compound I-15] | 82
CNC(=O)c1c(-c2ccc(Oc3ccc(F)cc3)cc2)oc2cc(N(CC3COC(=O)N3)S(C)(=O)=O)c(C3CC3)cc12 (stereo not shown) [Compound I-108] | 26
CNC(=O)c1c(-c2ccc(Nc3ccc(C#N)cc3)cc2)oc2cc(N(CCO)S(C)(=O)=O)c(OC)cc12 [Compound I-13] | 1840
CNC(=O)c1c(-c2ccc(Nc3cccc(F)c3F)cc2)oc2cc(N(CCO)S(C)(=O)=O)c(OC)cc12 [Compound I-21] | 59
CNC(=O)c1c(-c2ccc(Oc3ccc(F)cc3)cc2)oc2cc(C(C)(C)O)c(C3CC3)cc12 [Compound I-110, 5-Cyclopropyl-2-[4-(4-fluoro-phenoxy)-phenyl]-6-(1-hydroxy-1-methyl-ethyl)-benzofuran-3-carboxylic acid methylamide] | 39
CNC(=O)c1c(-c2ccc(Oc3ccc(F)cc3)cc2)oc2cc(N(C3CNC3)S(C)(=O)=O)c(C3CC3)cc12 [Compound I-75] | 300
CNC(=O)c1c(-c2ccc(Nc3c(F)cccc3F)cc2)oc2cc(N(CCO)S(C)(=O)=O)c(OC)cc12 [Compound I-25] | 123
CNC(=O)c1c(-c2ccc(Nc3cccc(OC)c3)cc2)oc2cc(N(CCO)S(C)(=O)=O)c(OC)cc12 [Compound I-7] | 136
CNC(=O)c1c(-c2ccc(Oc3ccc(F)cc3)cc2)oc2cc(C3CCCN3)c(OC)cc12 (stereo not shown) [Compound I-111, 2-[4-(4-Fluoro-phenoxy)-phenyl]-5-methoxy-6-pyrrolidin-2-yl-benzofuran-3-carboxylic acid methylamide] | 933
CNC(=O)c1c(-c2ccc(Oc3ccc(F)cc3)cc2)oc2cc(N(CC(C)(C)O)S(C)(=O)=O)c(C3CC3)cc12 [Compound I-78] | 55
CNC(=O)c1c(-c2ccc(Oc3ccc(F)cc3)cc2)oc2cc(N(C3CCC(N)CC3)S(C)(=O)=O)c(C3CC3)cc12 (stereo not shown) [Compound I-98, 6-[(4-Amino-cyclohexyl)-methanesulfonyl-amino]-5-cyclopropyl-2-[4-(4-fluoro-phenoxy)-phenyl]-benzofuran-3-carboxylic acid methylamide] | 44

SMILES | IC50 [nM]
CNC(=O)c1c(-c2ccc(Nc3ccc(F)cn3)cc2)oc2cc(N(CCO)S(C)(=O)=O)c(OC)cc12 [Compound I-124] | 195
CNC(=O)c1c(-c2ccc(Oc3ccc(F)cc3)cc2)oc2cc(N(CCO)S(C)(=O)=O)c(C)cc12 [Compound I-55] | 44
CNC(=O)c1c(-c2ccc(Nc3ccc(Cl)cc3)cc2)oc2cc(N(CCO)S(C)(=O)=O)c(OC)cc12 [Compound I-3] | 214
CNC(=O)c1c(-c2ccc(Oc3ccc(F)cc3)cc2)oc2cc(N(CCN)C(C)=O)c(OC)cc12 [Compound I-54] | 1240
CCc1cc2c(C(=O)NC)c(-c3ccc(Oc4ccc(F)cc4)cc3)oc2cc1N(CCO)S(C)(=O)=O [Compound I-51, 5-Ethyl-2-[4-(4-fluoro-phenoxy)-phenyl]-6-[(2-hydroxy-ethyl)-methanesulfonyl-amino]-benzofuran-3-carboxylic acid methylamide] | 88
CNC(=O)c1c(-c2ccc(Oc3ccc(F)cc3)cc2)oc2cc(C3CCCN3S(C)(=O)=O)c(OC)cc12 (stereo not shown) [Compound I-112, 2-[4-(4-Fluoro-phenoxy)-phenyl]-6-(1-methanesulfonyl-pyrrolidin-2-yl)-5-methoxy-benzofuran-3-carboxylic acid methylamide] | 349
CNC(=O)c1c(-c2ccc(Oc3ccccc3)cc2)oc2cc(C(C)=O)c(C3CC3)cc12 [Compound I-86] | 362
CNC(=O)c1c(-c2ccc(Oc3ccccc3F)cc2)oc2cc(N(C)S(C)(=O)=O)c(OC)cc12 [Compound I-36] | 48
CNC(=O)c1c(-c2ccc(Oc3ccc(F)cc3)cc2)oc2cc(N(CCCN(C)S(C)(=O)=O)S(C)(=O)=O)c(C3CC3)cc12 [Compound I-117] | 11
CNC(=O)c1c(-c2ccc(Oc3ccc(F)cc3F)cc2)oc2cc(N(CCO)S(C)(=O)=O)c(OC(C)C)cc12 [Compound I-39] | 195
CNC(=O)c1c(-c2ccc(Nc3cccc(C#N)c3)cc2)oc2cc(N(CCO)S(C)(=O)=O)c(OC)cc12 [Compound I-12] | 298
CNC(=O)c1c(-c2ccc(Oc3ccc(F)cc3)cc2)oc2cc(NS(C)(=O)=O)c(OC)cc12 [Compound I-43] | 238
CNC(=O)c1c(-c2ccc(Oc3ccc(F)cc3)cc2)oc2cc(N(C3CCNCC3)S(C)(=O)=O)c(C3CC3)cc12 [Compound I-76] | 376
CNC(=O)c1c(-c2ccc(Oc3ccc(F)cc3F)cc2)oc2cc(N(CCO)S(C)(=O)=O)c(C3CC3)cc12 [Compound I-58] | 85
CNC(=O)c1c(-c2ccc(Oc3ccc(F)cc3)cc2)oc2cc(C3CCCN3C(C)=O)c(OC)cc12 (stereo not shown) [Compound I-109, 6-(1-acetyl-pyrrolidin-2-yl)-2-[4-(4-fluoro-phenoxy)-phenyl]-5-methoxy-benzofuran-3-carboxylic acid methylamide] | 44
CNC(=O)c1c(-c2ccc(Oc3ccc(F)cc3)cc2)oc2cc(N(CCN)S(C)(=O)=O)c(OC)cc12 [Compound I-53] | 250
CNC(=O)c1c(-c2ccc(Nc3ccc(Cl)cc3)cc2)oc2cc(N(CCO)S(C)(=O)=O)c(OC(C)C)cc12 [Compound I-30] | 815
CCc1cc2c(C(=O)NC)c(-c3ccc(Oc4ccc(F)cc4)cc3)oc2cc1N(C)S(C)(=O)=O [Compound I-52] | 128
